According to US20200376068A1, “PROTECTION OF NORMAL TISSUE IN CANCER TREATMENT” (THOMAS JEFFERSON UNIVERSITY, priority 2017, published 2020):
Bridge positions count the residues as written; N and C are the ends. Ends that are not written are not given here. Peptide text beside a SMILES is read from it.

Tests used:
[1] = system: intestinal stem cells (ISCs); experiment: Quantification of crypt Lgr5+GFP+ and Bmi1+ stem cells in Gucy2c−/− mice; assay type: in vivo, mouse
Protocol: (§1) Gucyc^−/− (Glucy2^ctm1Gar[63]), Lgr5-EGFP-CreERT2 (B6.129P2-Lgr5^tm1(cre/ERT2)Cle/J; Jax, Bar Harbor, Me., #008875) and Rosa-STOP^fl-LacZ (B6.129S4-Gt(ROSA)26Sor^tm1Sor/J; Jax #003474) transgenic mouse lines were interbred to generate offspring with the desired alleles. All mice were co-housed and Gucy2c^+/+ (wild type) littermates with the appropriate alleles were used as controls. Tissues were harvested from adult mice (12-16 wk of age). Cre was induced with a single 200 μL dose of tamoxifen (Sigma; Billerica, Mass.; T5648) in sunflower oil at 10 mg/ml. Tauroursodeoxycholic Acid (TUDCA, Millipore 580549) treatments were administered daily for 3 d at 100 mg/kg/day intraperitoneally. Mice were exposed to a single 10 Gy dose of whole-body γ-irradiation with a PanTak, 310 kVe x-ray machine and tissues were harvested at noted time points after irradiation. In some experiments, mice were gavaged daily for 7 d with 100 μL of 20 mM 8-cpt-cGMP. Each point in a graph (n) represents one mouse unless otherwise noted. All animal protocols were approved by the Thomas Jefferson University Institutional
Intestines were harvested from mice, fixed in formalin, and embedded in paraffin as previously described. Sections (4 μM) were cut then rehydrated in a sequential ethanol-to-water bath and stained with hematoxylin and eosin or antigen-specific primary and secondary antibodies. Primary antibodies for immunofluorescence included: anti-GFP, anti-Bmi1, and anti-GRP78 (Abcam; Cambridge, M A); anti-phospho VASP Ser239 (Sigma; Billerica, Mass.); and anti-GUCY2C (prepared and validated in-house). Secondary antibodies were from Life Technologies (Waltham, Mass.) and specific to the primary hosts. Tyramide signal amplification was used to detect GUCY2C; secondary antibodies conjugated to horseradish peroxidase were from Jackson immunoresearch Laboratories (cat #115-035-206 and #111-036-046, 1:1000 dilution), and fluorescein-conjugated tyramine was prepared from tyramine HCl (cat #T2879, Sigma) and NHS-fluorescein (cat #46410, Thermo Scientific) as described. For visualization of Rosa-LacZ lineage tracing, tamoxifen-induced recombinant Cre intestines were prepared as described previously. At least 4 intestinal circumference sections were evaluated per mouse.

Grp78 (BiP) = experiment: Crypt ER stress, Grp78 (BiP) expression; assay type: in vivo, mouse; conditions: Gucy2c−/− mice
Protocol: as §1
Intestines were harvested from mice, fixed in formalin, and embedded in paraffin as previously described. […] At least 4 intestinal circumference sections were evaluated per mouse.

[2] = system: HCT116 human colon carcinoma cells (parental); experiment: Anaphase bridge index and aneuploidy after 5 Gy; assay type: cell-based; conditions: pretreatment 500 μM
Protocol: (§2) Cells preconditioned with 8-Br-cGMP, or control cells, were irradiated (5 Gy), then seeded on coverslips in 24-well plates (5×10^4 cells per well). ABI and aneuploidy were quantified 2 d after irradiation.
(§3) ABI: Cells were fixed in 4% PFA and stained with DAPI. Anaphase cells were analyzed and abnormal anaphase cells were calculated under a fluorescence microscope. More than 200 anaphase cells were analyzed in each treatment group in each independent experiment. Any abnormal anaphase cells with anaphase bridges or anaphase lag showing extended chromosome bridging between two spindle poles were enumerated and the ABI was calculated as percentage of abnormal anaphase cells over total anaphase cells.
(§4) Aneuploidy: Cells were fixed in 4% PFA and stained with DAPI, and immunofluorescence stains were performed using α/β-tubulin-specific antibodies and […] γ-tubulin antibodies, detected with Alexa Fluor® 555 or Alexa Fluor® 488 labeled secondary antibodies from Invitrogen. […] Abnormal anaphase chromatids were counted if cells contained more than two centrosomes or two centrosomes located in the same direction to the spindle midzone separated from kinetochores at the poles.

p53-Mdm2 interaction = experiment: Immunoprecipitation of p53-Mdm2 in irradiated HCT116 cells; assay type: cell-based, human; conditions: 5 Gy radiation, IP and Western Blot
Protocol: McCoy's 5A and Dulbecco's Modified Eagle Medium (DMEM) containing 10% fetal bovine serum and other reagents for cell culture were obtained from Life Technologies (Rockville, Md.). 8-Bromoguanosine 3′, 5′-cyclic monophosphate (8-Br-cGMP), a cell-permeant analog of cGMP, was obtained from Sigma (St. Louis, Mo.) and 500 μM was used in all experiments (18,20,25,26,34).
Mouse IgG (5 μg, cat. #10400C, Invitrogen) and rabbit IgG (5 μg, cat. #10400C, Invitrogen) were isotype controls for immunoprecipitation.

HCT116 p53-null cells [3] = experiment: Anaphase bridge index and aneuploidy after 5 Gy; assay type: cell-based, human; conditions: pretreatment 500 μM
Protocol: as §2, §3, §4

p53 = experiment: Immunoblot of total and phosphorylated p53 in irradiated HCT116 cells; assay type: cell-based, human; conditions: 5 Gy radiation, 500 μM
HCT116 p53-null cells [4] = experiment: Colony formation assay after irradiation; assay type: cell-based, human; conditions: 0-4 Gy, 500 μM, vs PBS
Protocol: (§5) HCT116 and HCT116 p53-null cells were plated in 6-well dishes at 1×10^4 cells/well followed by treatment for 7 d with vehicle or cell permeable cGMP (8-Br-cGMP, 500 μM). Media containing different treatments were changed every other day. After exposure to radiation (0-4 Gy) cells were trypsinized and plated in 6-well dishes at different densities depending on the potency of the treatments (10^4 cells/well for HCT116 exposed at 0, 1 and 2 Gy; 4×10^4 cells/well for HCT116 p53-null exposed at 0, 1 and 2 Gy; 50×10^4 cells/well for HCT116 exposed at 3 and 4 Gy; 200×10^4 cells/well for HCT116 p53-null exposed at 3 and 4 Gy). […] The number of colonies, defined as >50 cells/colony were counted, and the surviving fraction was calculated as the ratio of the number of colonies in the treated sample to the number of colonies produced by cells that were not irradiated. […]
(§6) Statistical significance was determined by unpaired two-tailed Student's t test unless otherwise indicated. […] Survival and disease-free survival were analyzed by Kaplan-Meier analysis. Body weight was analyzed using a frailty model combining a segmented linear longitudinal model of body weight, a log-normal model for survival time, and a log-normal model for random break point for body weight (inflection point). […] Colony formation was analyzed by a pairwise comparison in four treatments with isotherm slopes by linear regression.

HCT116 cells (parental) = experiment: Colony formation assay after irradiation; assay type: cell-based, human; conditions: parental HCT116, 0-4 Gy, 500 μM for 7 d before and after irradiation, vs PBS
Protocol: as §5, §6

[5] = system: patients with irritable bowel syndrome; conditions: oral; cited from earlier work
intestinal crypts = experiment: Ex vivo enteroid formation from crypts; assay type: cell-based, mouse; conditions: crypts of Gucy2c+/+ mice, oral linaclotide
Protocol: Crypt isolation for subsequent analyses (enteroid assay, florescence-activated cell sorting (FACS), immunoblot) was performed using a variation of the chelation dissociation method. Briefly, intestines were harvested, villi were gently scraped off for the small intestine, and tissues were minced and incubated in a 10 mM EDTA/Ca-free, Mg-free Hank's Balanced Salt Solution (HBSS) on ice for a total of 40 min, Throughout this time, solutions were intermittently shaken by hand at the speed of two shakes/second, supernatant was disposed a total of six times, and fresh EDTA/HBSS was added after each disposal. Tissue was incubated undisturbed for 30 min on ice followed by vigorous pipetting with a 10 mL pipet to dissociate the remaining crypts. Crypts were filtered through a […] strainer and pelleted. For enteroid culture, the same number of crypts for each genotype (ranging from 300-1500 crypts/well) were resuspended in a matrigel droplet (BD, 354230), pipetted briefly with a 1000 μL micropipette, plated in 30 μL, and overlaid with 350 μL of intesticult media (Stem Cell Technologies, Vancouver. Canada: 06005). For FACS, crypts were incubated in 0.25% trypsin (Thermo Scientific, Philadelphia, Pa.; 15050065) at 37° C. until a single cell suspension was obtained (not more than 10 min). Cells were then filtered a second time using a 40 μM strainer and kept in EDTA solution for sorting.

[6] = cited from earlier work
[7] = target: guanylate cyclase (ST receptors) (Homo sapiens, UniProt P25092); conditions: relative to native ST; cited from earlier work
Sequence of guanylate cyclase (ST receptors) (P25092 24-1073): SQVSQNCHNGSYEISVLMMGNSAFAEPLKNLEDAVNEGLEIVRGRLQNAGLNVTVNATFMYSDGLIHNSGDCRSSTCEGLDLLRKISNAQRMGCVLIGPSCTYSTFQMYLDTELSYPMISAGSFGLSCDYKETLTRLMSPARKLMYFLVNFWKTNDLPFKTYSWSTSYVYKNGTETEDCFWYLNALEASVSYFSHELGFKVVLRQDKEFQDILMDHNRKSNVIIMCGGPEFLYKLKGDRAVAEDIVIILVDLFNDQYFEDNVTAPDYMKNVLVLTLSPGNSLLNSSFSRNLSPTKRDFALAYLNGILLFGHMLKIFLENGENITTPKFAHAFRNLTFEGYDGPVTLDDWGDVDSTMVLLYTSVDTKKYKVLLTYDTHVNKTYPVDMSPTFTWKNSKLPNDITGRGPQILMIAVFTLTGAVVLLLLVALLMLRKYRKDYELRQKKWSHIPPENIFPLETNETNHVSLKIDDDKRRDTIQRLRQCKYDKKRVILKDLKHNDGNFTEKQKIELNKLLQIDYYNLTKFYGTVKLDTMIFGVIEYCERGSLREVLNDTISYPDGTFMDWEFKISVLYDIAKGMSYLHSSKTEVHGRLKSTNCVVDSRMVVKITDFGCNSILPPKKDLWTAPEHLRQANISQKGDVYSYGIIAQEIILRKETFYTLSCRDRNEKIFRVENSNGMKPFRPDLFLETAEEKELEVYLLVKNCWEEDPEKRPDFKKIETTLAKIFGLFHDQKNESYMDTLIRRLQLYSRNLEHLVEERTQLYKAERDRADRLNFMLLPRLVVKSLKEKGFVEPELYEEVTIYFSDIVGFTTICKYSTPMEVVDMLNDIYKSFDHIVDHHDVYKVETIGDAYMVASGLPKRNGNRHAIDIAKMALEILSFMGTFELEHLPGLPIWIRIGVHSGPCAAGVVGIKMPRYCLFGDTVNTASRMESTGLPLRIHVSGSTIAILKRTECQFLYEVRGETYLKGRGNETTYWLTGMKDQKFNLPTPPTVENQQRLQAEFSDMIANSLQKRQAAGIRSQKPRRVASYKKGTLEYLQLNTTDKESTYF

[8] = system: irradiated intestinal tissue; conditions: mice lacking genes encoding GCC or uroguanylin; cited from earlier work

Nc1nc2c(nc(Br)n2[C@@H]2O[C@@H]3COP(=O)(O)O[C@H]3[C@H]2O)c(=O)[nH]1 [8-Br-cGMP, 8-Bromoguanosine 3′, 5′-cyclic monophosphate]
Bmi1+ cells in crypts [1]: comparable to those in Gucy2c^+/+ mice
Lgr5+GFP+ cells in crypts [1]: comparable to those in Gucy2c^+/+ mice
BiP (Grp78) expression in crypts (Grp78 (BiP)): mimicked
chromosomal instability quantified by anaphase bridge index [2]: reduced
chromosomal instability quantified by centrosome counts (aneuploidy) [2]: reduced
p53-Mdm2 interaction (p53-Mdm2 interaction): disrupting
p53 activation (p53-Mdm2 interaction): increased
chromosomal instability quantified by anaphase bridge index (HCT116 p53-null cells [3]): insensitive
chromosomal instability quantified by centrosome counts (aneuploidy) (HCT116 p53-null cells [3]): insensitive
phosphorylated p53 (p53): increased
total p53 (p53): increased
cytogenetic toxicity induced by increasing doses of radiation, quantified by colony formation (HCT116 p53-null cells [4]): not significant
cytogenetic toxicity induced by increasing doses of radiation, quantified by colony formation (HCT116 cells (parental)): reduced

C[C@H](CCC(=O)NCCS(=O)(=O)O)[C@H]1CC[C@H]2[C@@H]3[C@@H](O)C[C@@H]4C[C@H](O)CC[C@]4(C)[C@H]3CC[C@]12C [TUDCA, tauroursodeoxycholic acid]
Bmi1+ cells in crypts [1]: restored
Lgr5+GFP+ cells in crypts [1]: restored
BiP (Grp78) expression in crypts (Grp78 (BiP)): restored normal BiP expression

C[C@@H]1NC(=O)[C@@H]2CCCN2C(=O)[C@H](CC(N)=O)NC(=O)[C@@H]2CSSC[C@H](N)C(=O)N[C@H]3CSSC[C@H](NC1=O)C(=O)N[C@@H]([C@@H](C)O)C(=O)NCC(=O)N[C@H](C(=O)N[C@@H](Cc1ccc(O)cc1)C(=O)O)CSSC[C@H](NC(=O)[C@H](Cc1ccc(O)cc1)NC(=O)[C@H](CCC(=O)O)NC3=O)C(=O)N2 [linaclotide] (H-CCEYCCNPACTGCY-OH; disulfide 1-6, 2-10, 5-13)
abdominal pain [5]: relieve
constipation [5]: improve
efficiency of enteroid formation (intestinal crypts): amplified
oral bioavailability or bioactivity outside the GI tract [6]: negligible

CC(C)C[C@H](NC(=O)[C@@H]1CSSC[C@@H]2NC(=O)[C@H](CC(C)C)NC(=O)[C@H](CCC(=O)O)NC(=O)[C@@H](NC(=O)[C@H](CCC(=O)O)NC(=O)[C@H](CC(=O)O)NC(=O)[C@@H](N)CC(N)=O)CSSC[C@H](NC(=O)[C@H](C)NC(=O)[C@H](C(C)C)NC(=O)[C@H](CC(N)=O)NC(=O)[C@H](C(C)C)NC2=O)C(=O)N[C@@H]([C@@H](C)O)C(=O)NCC(=O)N1)C(=O)O [plecanatide] (H-NDECELCVNVACTGCL-OH; disulfide 4-12, 7-15)
abdominal pain [5]: relieve
constipation [5]: improve
oral bioavailability or bioactivity outside the GI tract [6]: negligible

Guanylin: 15 amino acid peptide from mammalian intestine, about 50% sequence homology to ST; endogenous GCC agonist (PGTCEICAYAACTGC; ends and bridges not checked; cysteine pairing not given here; UniProt Q02747 101-115, looked up)
activates guanylate cyclase at a level less than native ST [7]: 10- to 100 fold

cGMP
level of apoptosis in irradiated intestinal tissue [8]: ameliorated
